Results as given in patent US20240158447A1, “PEPTIDES FOR USE IN THE TREATMENT OR PREVENTION OF MYOCARDIAL DAMAGE” (THE UNIVERSITY OF WESTERN AUSTRALIA, priority 2020, published 2024).
“Also recorded” adds a separate entry of the source.

What was measured:
[1] = system: cTnI-G203S mice; assay: Echocardiography of pre-cardiomyopathic cTnI-G203S mice (Example 15); assay type: in vivo, mouse; conditions: 5 μM, 3×/wk/5 wk, FIG. 15
Excerpt: Twenty to thirty week-old male mice expressing the human cTnI gene encoding the human disease-causing cTnI-G203S were generated and used for the in vivo studies. By way of background, the mice develop hallmark features of HCM between 20 and 25 weeks (Viola H, Johnstone V, Cserne Szappanos H, Richman T, Tsoutsman T, Filipovska A, et al. The L-type Ca(2+) channel facilitates abnormal metabolic activity in the cTnI-G2035 mouse model of hypertrophic cardiomyopathy. J Physiol. 2016; 594(14):4051-70; Viola H M, Shah A A, Johnstone V P A, Cserne Szappanos H, Hodson M P, Hool L C. Characterization and validation of a preventative therapy for hypertrophic cardiomyopathy in a murine model of the disease. Proc Nati Aced Sci U S A. 2020; 117(37):23113-24; Tsoutsman T, Chung J, Doolan A, Nguyen L, Williams IA, Tu E, et al. Molecular insights from a novel cardiac troponin I mouse model of familial hypertrophic cardiomyopathy. J Mol Cell Cardiol. 2006; 41(4):623-32). Age-matched male mice expressing the normal human troponin I gene were used as controls and indicated as wild-type (wt). For in vivo studies, 20-week old cTnI-G203S mice were treated with 10 μM AID(S)-TAT (2 mg/kg) or 5 μM AID-TAT mutant peptides via intraperitoneal injection, 3 times per week for a total duration of 5 weeks. The peptide was dissolved in phosphate buffered saline solution (PBS), and the total amount of the 10 μM AID-TAT mutant peptides administered over 5 weeks was 0.9 mg. The total amount of the 5 μM AID-TAT mutant peptides administered over 5 weeks was 0.45 mg Male mice were utilized to eliminate potential differences in responses due to gender. The number of mice used is indicated by N.
Echocardiographic studies to measure left ventricular function were performed on mice under light methoxyflurane anaesthesia with the use of an i13L probe on a Vivid™ 7 IQ ultrasound system (GE Healthcare, Little Chalfont, UK) as previously described (Viola H, Johnstone V, Cserne Szappanos H, Richman T, Tsoutsman T, Filipovska A, et al. The L-type Ca(2+) channel facilitates abnormal metabolic activity in the cTnI-G2035 mouse model of hypertrophic cardiomyopathy. J Physiol. 2016; 594(14):4051-70; Viola H M, Shah A A, Johnstone V P A, Cserne Szappanos H, Hodson M P, Hool L C. Characterization and validation of a preventative therapy for hypertrophic cardiomyopathy in a murine model of the disease. Proc Natl Acad Sci U S A. 2020; 117(37):23113-24; Viola H M, Johnstone V P A, Cserne Szappanos H, Richman T R, Tsoutsman T, Filipovska A, et al. The Role of the L-Type Ca(2+) Channel in Altered Metabolic Activity in a Murine Model of Hypertrophic Cardiomyopathy. JACC Basic Transl Sci. 2016; 1(1-2):61-72). Each N represents the average of quantitative measurements from wt or cTnI-G203S mice for each treatment group.

[2] = system: cTnI-G203S mice; assay: Heart weight to body weight ratio of treated cTnI-G203S mice; assay type: in vivo, mouse; conditions: 5 μM, 3×/wk/5 wk; compared with cTnI-G203S AID(S)-TAT; FIG. 16
Procedure: The effect of treatment of the mice with peptides on the development of hypertrophy assessed as changes in heart weight to body weight ratio was also examined. […] FIG. 16 presents the mean±SEM of heart weight to body weight ratio measurements from wt and cTnI-G203S mice treated with 10 μM AID(S)-TAT, 10 μM AID-TAT, 5 μM AIDP7-TAT, 5 μM AIDP14-TAT, 5 μM AIDP15-TAT or 5 μM AIDP16-TAT. n=number of mice as indicated. *P<0.05, **P<0.01 compared with cTnI-G203S AID(S)-TAT as determined by Kruskal-Wallis tests.

Question: Which IVDS [1] does the source give for “AIDP7-TAT: QQQEEDLKGYLDWITQAE with TAT sequence” here?
Answer: Its IVDS is “trend toward increased LVEDd and LVEDs, and decreased IVDS”.

Question: And the “EF, ejection fraction” value ([1]; versus AID(S)-TAT)?
Answer: The value was “effectively restored”.

Question: And the “FS, fractional shortening” value ([1]; versus AID(S)-TAT)?
Answer: Its value is “effectively restored”.

Question: What about the “IVSs, intraventricular septum in systole” value ([1]; versus AID(S)-TAT) of the same substance?
Answer: Its value is “significant decrease; also recorded: effectively restored”.

Question: What about the “LVEDd, left ventricular end diameter during diastole” value ([1]; versus AID(S)-TAT) of the same substance?
Answer: The value was “trend toward increased LVEDd and LVEDs, and decreased IVDS”.

Question: What about the “LVEDs, left ventricular end diameter during systole” value ([1]; versus AID(S)-TAT) of the same substance?
Answer: Its value is “trend toward increased LVEDd and LVEDs, and decreased IVDS”.

Question: What about the “LVPWd, left ventricular posterior wall in diastole” value ([1]; versus AID(S)-TAT) of the same substance?
Answer: The value was “effectively restored”.

Question: What about the “LVPWs, left ventricular posterior wall in systole” value ([1]; versus AID(S)-TAT) of the same substance?
Answer: Its value is “effectively restored; also recorded: significant decrease”.

Question: What about the “heart weight to body weight ratio” value [2] of the same substance?
Answer: The value was “significantly decreased heart weight/body weight”.
